Patent publication US20230366875A1, “GPCR19-P2XN RECEPTOR COMPLEX AND USE THEREOF” (SEOUL NATIONAL UNIVERSITY R&DB FOUNDATION, priority 2020, published 2023)

Columns and labels:
NLRP3 inflammasome [1] = test: Inflammasomal components in BMDM cells (immunostaining); assay type: cell-based, mouse; settings: LPS (10 ng/ml)+HY209 (400 ng/ml) 1 hour, BzATP (300 μm) 1 hour
Protocol: (§1) After that, in order to stain inflammasomal components, the cells were stained with anti-NLRP3 conjugated antibody (Abeam, Cambridge, UK) and anti-ASC Ab (Clone B-3, Santa Cruz Biotechnology, Inc. Dallas, Texas, USA) at 4° C. overnight, and then with Alexa Fluor 488-labeled or Alexa Fluor 532-labeled secondary conjugated antibody (Invitrogen, Carlsbad, CA, USA).

IL-1β [2] = test: IL-1β ELISA of BMDM culture supernatant; assay type: cell-based, mouse; settings: BMDM cells
Protocol: The cells were treated with ATP (500 μm) or BzATP (300 μm) for an additional 1 hour before recovery of the culture supernatant of the sample. IL-1β concentration in the culture supernatant recovered was measured according to the manufacturer's procedure using the IL-1β ELISA kit (R & D Systems Minneapolis, MN, USA) (FIG. 4A).
IL-1β concentration in the culture supernatant recovered was measured according to the manufacturer's procedure using the IL-1β ELISA kit (R & D Systems Minneapolis, MN, USA) (FIG. 4B).

P2X7 = P2X7 (Homo sapiens, UniProt Q99572); test: Potassium ion channel assay in PMA-differentiated U937 cells; settings: U937 cells differentiated by PMA (25 nM), BzATP (600 μM), HY209 (1 μM) 1 hour before BzATP
Protocol: Specifically, U937 cells were used to investigate whether the activity of ion channel was changed by the regulation of GPCR19. U937 cells were differentiated by treatment with PMA (25 nM). After that, a fluorescent probe was added and the reaction was conducted for 1 hour. Thereafter, the cells were treated with BzATP (600 μM), and the cumulative fluorescence value was measured using an ELISA instrument to investigate whether the ion channel was activated.

P2X7 receptor [3] = molecular target: T1, P2X7 receptor (Mus musculus, UniProt Q9Z1M0); test: Ca++ mobilization by P2X7 receptor in macrophages; assay type: cell-based; settings: BMDM cells, LPS (100 ng/ml)+HY209 (400 ng/ml) 1 hour, ATP (20 μM) or BzATP (40 μM)
T1 construct: endogenous in cells; host or cells: primary BMDM (bone marrow-derived macrophages)
Protocol: Specifically, BMDMs were obtained from three normal (wild-type, WT), GPCR19 KO or P2X7 KO mice. Then, the obtained BMDMs were treated with 20 μM ATP, attached to a glass coverslip, and then incubated in a physiological external solution consisting of NaCl 138 mM, KCl 5.6 mM, MgCl2 2 mM, HEPES 10 mM and pH 7.4 glucose 10 mM with 2 μM Fluo-4/AM in a 37° C. incubator for 30 minutes to observe intracellular Ca^++ mobilization. After that, the BMDMs were transferred to an open perfusion chamber to remove residual Fluo-4/AM, and the fluorescence level was measured using a fluorescence microscope (Nikon, Tokyo, Japan) under the conditions of excitation 494 nm and emission 506 nm. […]
After the treatment, Ca^++ mobilization measurement was started, and the cells were treated with ATP (20 μM) or BzATP (40 μM) in the presence of 2 mM CaCl2) and 0.5 mM MgCl2 50 seconds after the start of measurement. Intracellular Ca^++ mobilization was measured with […] using a fluorescence microscope in the same manner as in Example <2-1>, and graphed (FIG. 2D, left panels in first and second rows). After three independent experiments, the sum of the measured data was presented (FIG. 2D, right panels in first and second rows).

P2X7 receptor [4] = test: Ca++ mobilization by P2X7 receptor in microglia; assay type: cell-based, mouse; settings: BV2 cells, Aβ (2 μM)+HY209 (400 ng/ml) 1 hour, ATP (20 μM) or BzATP (40 μM)
P2X7 receptor [5] = test: Ca++ mobilization by P2X7 receptor in keratinocytes; assay type: cell-based, human; settings: HaCaT cells, IL-1β (10 ng/ml)+TNF-α (10 ng/ml), HY209 200, 400 and 800 ng/ml, 20 μM BzATP or ATP
NLRP3 inflammasome [6] = test: Inflammasomal components in HaCaT cells (immunostaining); assay type: cell-based, human; settings: TNF-α (20 ng/ml)+HY209 (400 ng/ml) 3 hours, then DNCB (5 μg/ml) 24 hours
Protocol: as §1

IL-1β [7] = test: IL-1β ELISA of HaCaT culture supernatant; assay type: cell-based, human; settings: HaCaT cells
Protocol: Thereafter, the IL-1β concentration was measured according to the manufacturer's procedure using the IL-113 ELISA kit (R&D Systems Minneapolis, MN, USA) (FIG. 3B).

[8] = tested on: TNF-α, RANTES, MCP-1, IL-1β and IL-8; test: Cytokine measurement using cytometric bead array (CBA); assay type: cell-based; settings: 1 μM; compared with INT777, crisaborole, MCC950, A740003, GW791343, tofacitinib, prednisolone
Protocol: Specifically, cocktail beads were prepared by mixing fluorescent beads bound with antibodies to five types of inflammatory cytokines, TNF-α, RANTES, MCP-1, IL-1β and IL-8 to be confirmed. Next, 50 μl of the prepared cocktail beads, the prepared sample, and the standard sample were reacted at room temperature for 1 hour in a dark environment. […] As a positive control group, 1 μM of prednisolone, a corticosteroid was used. The reaction mixture was transferred to a new tube by the required amount so that the phycoerythrin (PE) detection reagent was 1 μl/sample, and washed with the washing buffer, the capture bead diluent was added so as to be contained by 50 μl per each sample through the calculation of volume, and the reaction was conducted at room temperature for 15 minutes in a dark environment. Next, 50 μl of the prepared PE detection reagent was added into the tube in which the cocktail beads, the prepared sample, and the standard sample were reacting, mixing was thoroughly performed, and then the reaction was further conducted for 2 hours. After all reactions were completed, 1 ml of washing buffer was added, centrifugation was performed at 200 g for 5 minutes, then the supernatant was removed, 300 μl of washing buffer was added, and then quantitative measurement of the 5 types of inflammatory cytokines was performed using a flow cytometer (CANTO II FACS, BD Biosciences, US).

P2X7, sequence (Q8TDU6 whole entry partner): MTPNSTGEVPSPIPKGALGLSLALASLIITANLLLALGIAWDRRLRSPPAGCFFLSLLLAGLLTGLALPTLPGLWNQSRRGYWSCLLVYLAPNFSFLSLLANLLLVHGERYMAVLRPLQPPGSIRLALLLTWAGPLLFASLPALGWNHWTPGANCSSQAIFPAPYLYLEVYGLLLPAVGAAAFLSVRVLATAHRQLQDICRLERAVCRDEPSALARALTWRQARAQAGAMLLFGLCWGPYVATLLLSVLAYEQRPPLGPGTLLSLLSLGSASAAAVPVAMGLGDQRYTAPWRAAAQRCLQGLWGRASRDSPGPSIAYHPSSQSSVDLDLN
P2X7, sequence (Q99572 whole entry): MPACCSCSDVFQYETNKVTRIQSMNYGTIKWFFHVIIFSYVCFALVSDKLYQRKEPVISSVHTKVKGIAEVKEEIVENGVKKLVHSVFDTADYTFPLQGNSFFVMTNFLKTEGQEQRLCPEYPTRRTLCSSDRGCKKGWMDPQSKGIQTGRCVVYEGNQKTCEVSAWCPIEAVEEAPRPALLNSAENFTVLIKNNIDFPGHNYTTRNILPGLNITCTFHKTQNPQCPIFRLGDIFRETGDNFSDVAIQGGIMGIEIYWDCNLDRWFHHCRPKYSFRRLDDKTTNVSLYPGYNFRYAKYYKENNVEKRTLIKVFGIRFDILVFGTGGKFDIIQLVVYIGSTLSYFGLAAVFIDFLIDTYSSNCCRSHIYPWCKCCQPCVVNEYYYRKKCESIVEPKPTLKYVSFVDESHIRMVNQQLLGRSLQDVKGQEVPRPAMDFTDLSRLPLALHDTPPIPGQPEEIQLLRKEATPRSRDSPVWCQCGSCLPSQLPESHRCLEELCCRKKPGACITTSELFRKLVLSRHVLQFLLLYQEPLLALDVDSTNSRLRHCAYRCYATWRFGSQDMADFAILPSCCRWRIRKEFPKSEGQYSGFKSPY
T1 sequence (Q80SS6 whole entry partner): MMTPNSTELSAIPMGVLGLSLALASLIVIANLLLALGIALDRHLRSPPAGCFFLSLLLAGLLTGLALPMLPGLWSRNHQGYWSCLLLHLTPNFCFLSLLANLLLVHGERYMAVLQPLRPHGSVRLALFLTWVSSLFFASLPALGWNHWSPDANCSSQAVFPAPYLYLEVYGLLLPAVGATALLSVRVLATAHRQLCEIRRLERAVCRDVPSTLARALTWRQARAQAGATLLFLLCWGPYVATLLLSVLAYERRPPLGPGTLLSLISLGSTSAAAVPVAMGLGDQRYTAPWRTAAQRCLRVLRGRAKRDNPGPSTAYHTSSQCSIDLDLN
T1 sequence (Q9Z1M0 whole entry): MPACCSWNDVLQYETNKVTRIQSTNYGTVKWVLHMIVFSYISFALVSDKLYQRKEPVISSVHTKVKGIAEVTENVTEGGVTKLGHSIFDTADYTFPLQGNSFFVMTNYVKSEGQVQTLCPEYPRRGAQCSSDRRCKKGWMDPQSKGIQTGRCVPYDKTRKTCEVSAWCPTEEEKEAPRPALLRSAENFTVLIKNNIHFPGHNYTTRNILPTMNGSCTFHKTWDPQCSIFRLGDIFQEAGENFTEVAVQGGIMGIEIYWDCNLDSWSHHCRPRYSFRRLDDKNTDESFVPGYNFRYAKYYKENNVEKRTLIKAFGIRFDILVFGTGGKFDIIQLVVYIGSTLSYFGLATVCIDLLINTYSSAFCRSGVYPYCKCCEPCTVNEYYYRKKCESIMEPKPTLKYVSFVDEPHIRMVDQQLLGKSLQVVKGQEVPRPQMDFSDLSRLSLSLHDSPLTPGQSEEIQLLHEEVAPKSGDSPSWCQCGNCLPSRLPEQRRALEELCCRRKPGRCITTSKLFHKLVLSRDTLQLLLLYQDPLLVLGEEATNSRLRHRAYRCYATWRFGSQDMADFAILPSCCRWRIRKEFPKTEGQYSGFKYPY

## C[C@H](CCC(=O)NCCS(=O)(=O)O)[C@H]1CC[C@H]2[C@@H]3CC[C@@H]4C[C@H](O)CC[C@]4(C)[C@H]3C[C@H](O)[C@]12C [HY209, sodium taurodeoxycholate]
NLRP3 inflammasome [1]
  increase in hASC expression: suppressed
  increase in hNLRP3-ASC oligomerization: suppressed
  increase in hNLRP3 expression: suppressed
IL-1β [2]; HY209 (400 ng/ml) after treatment with LPS+BzATP (posttreatment, 3 hours after LPS)
  increase in the production of IL-1β: suppressed
IL-1β [2]; HY209 (400 ng/ml) before treatment with LPS+ATP (pretreatment, 1 hour before LPS)
  increase in the production of IL-1β: suppressed
IL-1β [2]; LPS (10 ng/ml)+ATP (500 μm), HY209 0, 25, 100, 400 ng/ml
  increase in the production of IL-1β: suppressed in a HY209 concentration-dependent manner
IL-1β [2]; LPS (10 ng/ml)+BzATP (300 μm), HY209 0, 25, 100, 400 ng/ml
  increase in the production of IL-1β: suppressed in a HY209 concentration-dependent manner
P2X7
  decrease of cumulative fluorescence value increased by BzATP: 100%
P2X7 receptor [3]
  Ca++ mobilization increased under the influence of LPS: significantly decreases
P2X7 receptor [4]
  Ca++ mobilization increased under the influence of Aβ: significantly decreases
P2X7 receptor [5]
  Ca++ mobilization increased under the influence of IL-1β and TNF-α: significantly decreases as the concentration of HY209 increases
NLRP3 inflammasome [6]
  increase in hASC expression: suppressed
  increase in hNLRP3-ASC oligomerization: suppressed
  increase in hNLRP3 expression: suppressed
IL-1β [7]; TNF-α (20 ng/ml)+DNCB (5 μg/ml)+HY209 (400 ng/ml), 24 hours
  increase in the production of IL-1β: suppressed
IL-1β [7]; TNF-α+DNCB+HY209 (400 ng/ml) 24 hours, then ATP 3 hours
  increase in the production of IL-1β: suppressed
[8]
  inhibitory effect on five types of inflammatory cytokines produced by the inflammasome stimulation signal: superior
